Data on 4 compounds can be found in PMC11124341, “4-Hydroxybenzoic Acid-Based Hydrazide–Hydrazones as Potent Growth Inhibition Agents of Laccase-Producing Phytopathogenic Fungi That Are Useful in the Protection of Oilseed Crops” (Molecules, 2024).

Converted amounts (≈) assume the structure as drawn.

One data set deals with NIH3T3 cell line. More on the design: method as in PMID 23142671. As to conditions: read-out: IC50 against NIH3T3 cell line; cited from earlier work.
The subject of the next data set is Candida. More on the design: method as in PMID 23142671. As to conditions: cited from earlier work.
A further data set relates to hepatitis C virus (HCV). The arrangement: method as in PMID 26695731. The following applies: read-out: EC50 against HCV; cited from earlier work.
The test system of another data set is Mahlavu line. The arrangement: method as in PMID 26695731. As to conditions: cited from earlier work.
For data set [1], the target named is laccase from Trametes versicolor. Briefly: Laccase inhibition kinetic study. Type of data set: biochemical. As to conditions: determined in this study for 32 (table cites [75]), SD = 5.75 (%). How it is done:
The inhibition constant for 32 was determined according to procedures and calculations reported previously using commercially available laccase from Trametes versicolor (Sigma-Aldrich).

Data set [2] relates to Sclerotinia sclerotiorum strain FSc10. Briefly: In vitro antifungal activity, mycelial growth inhibition on PDA medium. The data set is classed as cell-based. The following applies: screening at basal 50 µg/mL, PDA medium, mean ± SD of three determinations. How it is done:
(§1) The cultures of Botrytis cinerea strain FBc05 and Sclerotinia sclerotiorum strain FSc10 were obtained from the collection of the Division of Plant Pathology and Mycology at the Department of Plant Protection of Wroclaw University of Environmental and Life Sciences (Poland). Cerrena unicolor (Bull.ex.Fr.) Murr, strain no. 139, originated from the culture collection of the Department of Biochemistry, University of Lublin (Poland). The stock cultures were maintained on potato dextrose agar at +4 °C and periodically transferred to a fresh medium.
(§2) Prior to the fungicidal activity assay of hydrazide–hydrazones 1–35, we considered ethanol and DMSO as potential dissolution media for tested compounds. […] Furthermore, a very important aspect of biological testing is the careful selection of organic solvents. These are typically used, e.g., methanol, ethanol, acetone, and DMSO, and may be highly toxic for microorganisms in even very low concentrations, such as 1% (v/v). Ethanol and DMSO with a final concentration between 0.1 and 1.0% (v/v) in a PDA medium were used and applied to evaluate the inhibition growth of B. cinerea, S. sclerotiorum, and C. unicolor (see Supplementary Materials). The following procedure was applied to the microorganism testing. The assays of fungi inhibition growth were performed at a basal concentration of 50 µg/mL for all compounds, and detailed experiments were extended for testing between 0 and 50 µg/mL (0, 6.25, 12.5, 25.0, and 50.0 µg/mL) for selected compounds. The tests were carried out on Petri dishes (diameter 60 mm) with PDA medium containing appropriate compound, co-solvent control, and hydrazide–hydrazone dissolved in co-solvent assay. A piece of mycelium with a 5 mm edge taken from the outer edge of the growing fungi on the PDA plate with co-solvent was transferred to a central part of the PDA plate with the examined compound. The plates thus inoculated were incubated at 22 °C in the dark for a time when the control plate containing only the co-solvent was covered entirely with the tested microorganism. For B. cinerea and S. sclerotiorum, the test took 3 days, and for C. unicolor, it took 7 days. Each assay was performed at least in triplicate. […] Model parameters c and e were estimated using the nonlinear least-squares method. Parameters d and b (with two exceptions) were fixed and assumed to be equal. Based on estimated parameters, the values of IC50 were determined. […] The IC50 values were calculated only in cases when the model predicted a decrease in growth rate by more than 50%.
(§3) In vitro antifungal activity
(§4) Prior to the fungicidal activity assay of hydrazide-hydrazones 1–35, we considered ethanol (EtOH) and DMSO as potential dissolution media for tested compounds.
(§5) EtOH and DMSO with a final concentration between 0.1–1.0% (v/v) in a PDA medium were applied to evaluate the inhibition growth of B. cinerea, S. sclerotiorum, and C. unicolor (see Table S3). The following procedure was applied to the microorganism testing with the hydrazide-hydrazones. The assays of fungi inhibition growth were performed at a basal concentration of 50 µg/mL for all compounds, and detailed experiments were extended for testing selected molecules 18, 19, 27, […]
(§6) Table S2. In vitro antifungal activity for DMSO and ethanol co-solvents.

The subject of data set [3] is Botrytis cinerea strain FBc05. The description is as above. The data set is classed as cell-based. The following applies: screening at basal 50 µg/mL, PDA medium, mean ± SD of three determinations. As to the method:
as §1, §2, §3, §4, §5, §6

Data set [4] has as its system Cerrena unicolor strain no. 139. The description is as above. As to conditions: Cerrena unicolor, NO.139; screening at basal 50 µg/mL, PDA medium, mean ± SD of three determinations; read-out: fungal growth inhibition, C. unicolor. Type of data set: cell-based. As to the method: as §1, §2, §3, §4, §5, §6
Another data set deals with B. cinerea. The arrangement: method as in PMID 24582134. As to conditions: cited from earlier work.
The subject of a further data set is Rhizopus oryzae. More on the design: method as in PMID 24582134. As to conditions: cited from earlier work.
Data set [5] deals with Fusarium oxysporum Schltdl. More on the design: method as in PMID 24582134. As to conditions: cited from earlier work.
Data set [6] has as its system Alternaria alternata (Fr.) Keissl. More on the design: method as in PMID 24582134. The following applies: cited from earlier work.

As usually defined, the IC50 is the concentration that inhibits the measured activity by half. For orientation: EC50 means the concentration giving half of the maximal effect. By melting point is commonly meant the temperature, or range, at which the solid turns liquid. For orientation: Ki means the equilibrium dissociation constant of an inhibitor or competing ligand from its target. Read a low Ki as higher affinity.

On to `Cn1nnnc1SCC(=O)N/N=C/c1ccc(O)cc1` [II], for which the IC50 in the data set on NIH3T3 cell line is 632 µM. For the same compound, the “MIC, anticandidal activity” value with Candida was 500 to 1000 µg/mL.
In the case of `O=C(NN=Cc1ccccn1)c1cc(-c2ccc(F)cc2F)ccc1O` [XI], the figures for the EC50 in the data set on hepatitis C virus (HCV) and in the data set on Mahlavu line were 3.9 µM and 4.74 µM, respectively.
With `O=C(N/N=C/c1c(O)cc(O)c(/C=N/NC(=O)c2ccc(O)cc2)c1O)c1ccc(O)cc1` [compound 32, N′,N″-[(2,4,6-trihydroxy-1,3-phenylene)di-(E)-methanylylidene]bis(4-hydroxybenzohydrazide)], the melting point is 223 to 226 °C (dec.). The inhibition constant Ki in data set [1] is 194 µM. Also, the “fungal growth inhibition, S. sclerotiorum” value in [2] is “n.o”. For the same compound, the “fungal growth inhibition, B. cinerea” value in data set [3] is on record as “n.o”. Further, the inhibition of growth at 50 µg/mL in [4] stood at 14.3 ± 2.7%.
Turning to `Cc1ccc(C(C)C)c(O)c1` [thymol], the “MIC (minimum inhibitory concentration), B. cinerea” value in the data set on B. cinerea was 300 µg/mL (≈ 2000 µM). In the data set with Rhizopus oryzae, the “MIC (minimum inhibitory concentration), Rhizopus oryzae” value is 450 µg/mL (≈ 3000 µM). For the same compound, the “MIC (minimum inhibitory concentration), Fusarium oxysporum” value in [5] is given as 300 µg/mL (≈ 2000 µM). Also, the “MIC (minimum inhibitory concentration), Alternaria alternata” value in data set [6] was 400 µg/mL (≈ 2660 µM).
